This is an account of results in patent publication US11110105B2, “Compounds, composition and uses thereof for treating cancer” (INSTITUT GUSTAVE ROUSSY, priority 2017, dated 2021).

Series [1] can be described thus: Water solubility. It is filed as physicochemical.
The target of series [2] is spliceosome (SF3B1) (Homo sapiens, UniProt O75533+Q7RTV0). The conditions noted are these: in vivo; cited from earlier work.
spliceosome (SF3B1), sequence (Q7RTV0 whole entry, canonical isoform): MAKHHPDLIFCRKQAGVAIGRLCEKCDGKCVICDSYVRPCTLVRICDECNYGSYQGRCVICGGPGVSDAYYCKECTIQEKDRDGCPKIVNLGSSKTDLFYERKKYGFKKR
spliceosome (SF3B1), sequence (Q15393 whole entry, further chain, canonical isoform): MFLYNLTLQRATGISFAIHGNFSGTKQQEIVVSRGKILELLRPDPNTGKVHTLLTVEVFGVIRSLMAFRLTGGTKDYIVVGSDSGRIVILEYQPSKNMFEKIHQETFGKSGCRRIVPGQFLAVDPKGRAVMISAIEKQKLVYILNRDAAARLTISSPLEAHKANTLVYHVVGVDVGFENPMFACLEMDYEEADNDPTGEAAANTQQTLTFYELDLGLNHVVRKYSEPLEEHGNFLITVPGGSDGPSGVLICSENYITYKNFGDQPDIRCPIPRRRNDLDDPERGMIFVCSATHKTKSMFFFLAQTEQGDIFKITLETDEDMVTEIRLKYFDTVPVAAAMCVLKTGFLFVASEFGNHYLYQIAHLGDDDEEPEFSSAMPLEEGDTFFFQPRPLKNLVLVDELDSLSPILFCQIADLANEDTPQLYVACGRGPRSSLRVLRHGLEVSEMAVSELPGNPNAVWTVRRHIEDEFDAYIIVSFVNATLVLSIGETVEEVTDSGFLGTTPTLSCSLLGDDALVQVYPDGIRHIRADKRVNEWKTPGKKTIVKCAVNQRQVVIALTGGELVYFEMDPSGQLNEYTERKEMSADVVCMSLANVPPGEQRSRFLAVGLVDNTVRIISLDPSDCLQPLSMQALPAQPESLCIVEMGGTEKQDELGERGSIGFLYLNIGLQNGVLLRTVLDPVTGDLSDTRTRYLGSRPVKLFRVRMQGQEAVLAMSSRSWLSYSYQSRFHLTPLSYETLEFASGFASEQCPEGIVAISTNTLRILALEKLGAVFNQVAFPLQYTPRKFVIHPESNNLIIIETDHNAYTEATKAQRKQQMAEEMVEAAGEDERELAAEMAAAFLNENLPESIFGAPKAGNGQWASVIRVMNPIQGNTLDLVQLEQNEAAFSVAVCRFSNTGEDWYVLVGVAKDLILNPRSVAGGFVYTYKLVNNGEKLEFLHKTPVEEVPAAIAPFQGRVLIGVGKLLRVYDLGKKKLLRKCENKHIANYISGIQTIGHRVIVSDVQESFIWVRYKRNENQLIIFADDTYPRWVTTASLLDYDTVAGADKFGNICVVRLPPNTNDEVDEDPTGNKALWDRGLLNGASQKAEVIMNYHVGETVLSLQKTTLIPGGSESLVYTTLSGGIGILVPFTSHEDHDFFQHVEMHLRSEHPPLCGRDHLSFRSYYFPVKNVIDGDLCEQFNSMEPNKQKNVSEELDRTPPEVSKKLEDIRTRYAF
spliceosome (SF3B1), sequence (Q9BWJ5 whole entry, further chain, canonical isoform): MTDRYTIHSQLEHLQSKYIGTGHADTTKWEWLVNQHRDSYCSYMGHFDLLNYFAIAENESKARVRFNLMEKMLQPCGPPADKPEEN
spliceosome (SF3B1), sequence (O75533 whole entry, canonical isoform): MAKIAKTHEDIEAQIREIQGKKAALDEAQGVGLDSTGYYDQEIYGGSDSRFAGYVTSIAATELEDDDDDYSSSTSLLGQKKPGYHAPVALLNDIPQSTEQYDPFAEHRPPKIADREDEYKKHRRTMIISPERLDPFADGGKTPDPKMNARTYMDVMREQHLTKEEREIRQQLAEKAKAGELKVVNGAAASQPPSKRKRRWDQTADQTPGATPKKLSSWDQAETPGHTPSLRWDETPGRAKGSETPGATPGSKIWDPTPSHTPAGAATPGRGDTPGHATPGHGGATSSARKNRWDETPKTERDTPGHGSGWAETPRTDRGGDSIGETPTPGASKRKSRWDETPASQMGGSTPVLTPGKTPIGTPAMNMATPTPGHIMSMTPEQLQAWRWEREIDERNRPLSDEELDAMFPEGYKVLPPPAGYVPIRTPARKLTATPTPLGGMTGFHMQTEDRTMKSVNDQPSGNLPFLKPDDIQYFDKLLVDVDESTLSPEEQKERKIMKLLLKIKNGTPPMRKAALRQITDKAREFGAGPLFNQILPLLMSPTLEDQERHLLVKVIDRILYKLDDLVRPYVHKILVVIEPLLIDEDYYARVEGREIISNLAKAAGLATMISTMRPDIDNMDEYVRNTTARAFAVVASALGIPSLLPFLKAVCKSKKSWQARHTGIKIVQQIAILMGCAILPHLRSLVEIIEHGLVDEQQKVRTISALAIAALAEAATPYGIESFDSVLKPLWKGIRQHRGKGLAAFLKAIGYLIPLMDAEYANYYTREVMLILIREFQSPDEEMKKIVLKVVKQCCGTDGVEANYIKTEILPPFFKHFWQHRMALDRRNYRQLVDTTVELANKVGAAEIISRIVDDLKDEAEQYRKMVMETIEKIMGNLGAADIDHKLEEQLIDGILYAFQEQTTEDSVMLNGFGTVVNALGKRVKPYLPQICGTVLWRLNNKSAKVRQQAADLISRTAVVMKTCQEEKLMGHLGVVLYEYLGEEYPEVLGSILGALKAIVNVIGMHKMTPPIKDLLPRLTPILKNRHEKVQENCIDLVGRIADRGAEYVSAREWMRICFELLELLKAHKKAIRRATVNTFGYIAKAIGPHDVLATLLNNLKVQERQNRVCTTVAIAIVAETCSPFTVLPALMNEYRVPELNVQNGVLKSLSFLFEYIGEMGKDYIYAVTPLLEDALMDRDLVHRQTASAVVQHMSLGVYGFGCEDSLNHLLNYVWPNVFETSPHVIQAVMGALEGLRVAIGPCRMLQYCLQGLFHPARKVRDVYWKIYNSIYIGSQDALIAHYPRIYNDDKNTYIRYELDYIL

Regarding `COc1ccc(-c2cc(=O)c3c([O-])cc(OP(=O)(O)O)c(-c4cc(-c5cc(=O)c6c([O-])cc(OP(=O)(O)O)cc6o5)ccc4OC)c3o2)cc1.[Na+].[Na+]` [Compound 2], the water solubility entry in series [1] is “considerably higher than that of the parent compound isoginkgetin”.
On to `CC[C@H](O)[C@@H](C)[C@H]1O[C@@H]1C[C@@](C)(O)/C=C/C=C(\C)[C@H]1OC(=O)C[C@H](O)CC[C@@](C)(O)[C@@H](OC(=O)N2CCN(C3CCCCCC3)CC2)/C=C/[C@@H]1C` [E7107], for which the “outcome of testing in human” value in series [2] is listed as “stopped because of problems of toxicity”.
